The source of these data is patent publication US10800791B2, “Triazole ACC inhibitors and uses thereof” (Gilead Apollo, LLC, priority 2015, dated 2020).

What is called IC50 is the point on the concentration scale where inhibition reaches its midpoint. As a reminder, the MIC is the smallest concentration in the dilution series that meets the test's criterion for growth inhibition.

The target in one assay is human (hACC2) (Homo sapiens, UniProt O00763). The experiment in a line: In vitro ACC inhibition assay (ADP-Glo), hACC2. It counts as biochemical. The settings on record: 5 nM ACC2, 20 μM ATP, 20 μM acetyl-CoA. How it is done:
The detailed procedure is as follows. […] 10 μL ADP glo reagent was added. […] 20 μL kinase detection reagent was added.
For orientation: In ADP-Glo the light output rises with the ADP produced.

The next assay relates to C. parapsilosis. The experiment in a line: Antifungal Activity Assay (broth microtiter MIC), C. parapsilosis. It counts as cell-based, Candida parapsilosis. The conditions noted are these: Lodderomyces parapsilosis, ATCC22019, 48 h, ATCC 22019, 3 replicates, MIC recorded at 48 h, read-out: MIC, C. parapsilosis ATCC 22019. In outline:
(§1)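 Endpoint: lowest concentration visibly inhibiting growth relative to control after 48 h. Inoculum of 2.5×10^3 CFU/mL final in RPMI 1640+MOPS, prepared from overnight 35° C agar cultures; test compounds diluted in water to 128 μg/mL before plating.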

The subject of the next assay is C. albicans. The experiment in a line: Antifungal Activity Assay (broth microtiter MIC), C. albicans. The class given is cell-based, Candida albicans. The settings on record: Candida albicans, ATCC90028, 48 h, ATCC 90028, 3 replicates, MIC recorded at 48 h, read-out: MIC, C. albicans ATCC 90028. In outline: as §1
The next assay has as its target fungal (fACC2) (UniProt Q00955). The settings on record: read-out: fACC2 (in vitro ACC2 Inhibition Assay, IC50), ADP-Glo, 5 nM ACC2, 20 μM ATP, 20 μM acetyl-CoA.
The subject of another assay is C. krusei. The experiment in a line: Antifungal Activity Assay (broth microtiter MIC), C. krusei. The class given is cell-based, Candida krusei. The conditions noted are these: Pichia kudriavzevii, ATCC6258, 48 h, ATCC 6258, 3 replicates, MIC recorded at 48 h, read-out: MIC, C. krusei ATCC 6258. In short, it runs like this:
as §1

Converted amounts (≈) assume the structure as drawn. Where two headings read alike, the source gives them in different places.

Sequence of fungal (fACC2) (Q00955 whole entry): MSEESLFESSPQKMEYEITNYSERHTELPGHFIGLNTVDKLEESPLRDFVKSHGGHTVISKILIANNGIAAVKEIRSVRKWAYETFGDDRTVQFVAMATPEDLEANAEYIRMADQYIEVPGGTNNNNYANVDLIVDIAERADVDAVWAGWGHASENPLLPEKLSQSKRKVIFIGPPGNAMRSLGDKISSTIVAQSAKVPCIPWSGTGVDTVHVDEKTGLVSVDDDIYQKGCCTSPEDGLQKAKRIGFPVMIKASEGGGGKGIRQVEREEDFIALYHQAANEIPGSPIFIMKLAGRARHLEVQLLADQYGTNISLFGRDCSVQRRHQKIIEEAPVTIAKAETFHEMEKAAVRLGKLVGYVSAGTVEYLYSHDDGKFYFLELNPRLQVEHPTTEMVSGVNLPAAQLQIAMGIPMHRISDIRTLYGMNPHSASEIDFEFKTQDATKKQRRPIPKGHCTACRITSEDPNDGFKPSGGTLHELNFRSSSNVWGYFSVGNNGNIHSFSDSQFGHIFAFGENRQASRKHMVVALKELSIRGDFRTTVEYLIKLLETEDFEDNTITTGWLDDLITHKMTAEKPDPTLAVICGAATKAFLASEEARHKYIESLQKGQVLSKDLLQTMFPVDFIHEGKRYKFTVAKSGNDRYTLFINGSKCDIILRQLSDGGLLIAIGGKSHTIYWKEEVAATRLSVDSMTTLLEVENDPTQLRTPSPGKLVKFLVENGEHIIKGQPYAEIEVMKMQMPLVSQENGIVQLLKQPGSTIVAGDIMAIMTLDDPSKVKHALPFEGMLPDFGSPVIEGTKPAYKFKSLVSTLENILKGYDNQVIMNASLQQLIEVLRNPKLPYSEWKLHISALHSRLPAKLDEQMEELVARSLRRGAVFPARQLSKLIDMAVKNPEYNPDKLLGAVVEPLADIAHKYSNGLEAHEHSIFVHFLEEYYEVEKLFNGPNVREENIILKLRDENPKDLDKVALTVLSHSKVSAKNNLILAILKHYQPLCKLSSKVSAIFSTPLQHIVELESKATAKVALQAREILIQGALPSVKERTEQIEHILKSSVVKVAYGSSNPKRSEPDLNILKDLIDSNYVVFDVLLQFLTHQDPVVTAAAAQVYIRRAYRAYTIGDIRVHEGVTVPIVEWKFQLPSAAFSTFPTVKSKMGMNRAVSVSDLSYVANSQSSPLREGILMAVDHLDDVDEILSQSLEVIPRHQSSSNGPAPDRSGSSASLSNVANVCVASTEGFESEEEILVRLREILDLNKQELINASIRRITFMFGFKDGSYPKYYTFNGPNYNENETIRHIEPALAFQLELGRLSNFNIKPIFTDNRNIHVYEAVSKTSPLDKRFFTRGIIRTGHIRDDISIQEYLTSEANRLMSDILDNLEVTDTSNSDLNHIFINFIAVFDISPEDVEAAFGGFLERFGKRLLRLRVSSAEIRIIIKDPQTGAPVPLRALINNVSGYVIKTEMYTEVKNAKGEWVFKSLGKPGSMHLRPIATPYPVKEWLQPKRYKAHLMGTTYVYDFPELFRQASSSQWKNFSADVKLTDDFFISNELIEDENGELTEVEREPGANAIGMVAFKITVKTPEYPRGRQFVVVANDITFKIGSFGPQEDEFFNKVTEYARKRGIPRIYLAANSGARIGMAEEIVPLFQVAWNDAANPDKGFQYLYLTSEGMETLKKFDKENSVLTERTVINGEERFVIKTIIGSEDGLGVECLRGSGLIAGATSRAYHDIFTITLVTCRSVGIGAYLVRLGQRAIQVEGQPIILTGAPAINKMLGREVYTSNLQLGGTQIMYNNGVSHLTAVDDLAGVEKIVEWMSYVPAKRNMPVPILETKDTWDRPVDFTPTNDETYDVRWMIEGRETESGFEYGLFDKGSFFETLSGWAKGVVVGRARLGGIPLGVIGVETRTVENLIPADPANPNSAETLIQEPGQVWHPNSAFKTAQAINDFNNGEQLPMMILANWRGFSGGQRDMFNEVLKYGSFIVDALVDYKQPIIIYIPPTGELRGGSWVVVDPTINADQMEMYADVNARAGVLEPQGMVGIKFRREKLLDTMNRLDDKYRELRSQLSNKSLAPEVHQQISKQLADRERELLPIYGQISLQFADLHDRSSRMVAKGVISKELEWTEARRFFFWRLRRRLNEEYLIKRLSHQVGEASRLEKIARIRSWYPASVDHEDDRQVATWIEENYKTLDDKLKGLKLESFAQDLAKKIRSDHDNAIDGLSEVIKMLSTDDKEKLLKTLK
Sequence of human (hACC2) (O00763 whole entry): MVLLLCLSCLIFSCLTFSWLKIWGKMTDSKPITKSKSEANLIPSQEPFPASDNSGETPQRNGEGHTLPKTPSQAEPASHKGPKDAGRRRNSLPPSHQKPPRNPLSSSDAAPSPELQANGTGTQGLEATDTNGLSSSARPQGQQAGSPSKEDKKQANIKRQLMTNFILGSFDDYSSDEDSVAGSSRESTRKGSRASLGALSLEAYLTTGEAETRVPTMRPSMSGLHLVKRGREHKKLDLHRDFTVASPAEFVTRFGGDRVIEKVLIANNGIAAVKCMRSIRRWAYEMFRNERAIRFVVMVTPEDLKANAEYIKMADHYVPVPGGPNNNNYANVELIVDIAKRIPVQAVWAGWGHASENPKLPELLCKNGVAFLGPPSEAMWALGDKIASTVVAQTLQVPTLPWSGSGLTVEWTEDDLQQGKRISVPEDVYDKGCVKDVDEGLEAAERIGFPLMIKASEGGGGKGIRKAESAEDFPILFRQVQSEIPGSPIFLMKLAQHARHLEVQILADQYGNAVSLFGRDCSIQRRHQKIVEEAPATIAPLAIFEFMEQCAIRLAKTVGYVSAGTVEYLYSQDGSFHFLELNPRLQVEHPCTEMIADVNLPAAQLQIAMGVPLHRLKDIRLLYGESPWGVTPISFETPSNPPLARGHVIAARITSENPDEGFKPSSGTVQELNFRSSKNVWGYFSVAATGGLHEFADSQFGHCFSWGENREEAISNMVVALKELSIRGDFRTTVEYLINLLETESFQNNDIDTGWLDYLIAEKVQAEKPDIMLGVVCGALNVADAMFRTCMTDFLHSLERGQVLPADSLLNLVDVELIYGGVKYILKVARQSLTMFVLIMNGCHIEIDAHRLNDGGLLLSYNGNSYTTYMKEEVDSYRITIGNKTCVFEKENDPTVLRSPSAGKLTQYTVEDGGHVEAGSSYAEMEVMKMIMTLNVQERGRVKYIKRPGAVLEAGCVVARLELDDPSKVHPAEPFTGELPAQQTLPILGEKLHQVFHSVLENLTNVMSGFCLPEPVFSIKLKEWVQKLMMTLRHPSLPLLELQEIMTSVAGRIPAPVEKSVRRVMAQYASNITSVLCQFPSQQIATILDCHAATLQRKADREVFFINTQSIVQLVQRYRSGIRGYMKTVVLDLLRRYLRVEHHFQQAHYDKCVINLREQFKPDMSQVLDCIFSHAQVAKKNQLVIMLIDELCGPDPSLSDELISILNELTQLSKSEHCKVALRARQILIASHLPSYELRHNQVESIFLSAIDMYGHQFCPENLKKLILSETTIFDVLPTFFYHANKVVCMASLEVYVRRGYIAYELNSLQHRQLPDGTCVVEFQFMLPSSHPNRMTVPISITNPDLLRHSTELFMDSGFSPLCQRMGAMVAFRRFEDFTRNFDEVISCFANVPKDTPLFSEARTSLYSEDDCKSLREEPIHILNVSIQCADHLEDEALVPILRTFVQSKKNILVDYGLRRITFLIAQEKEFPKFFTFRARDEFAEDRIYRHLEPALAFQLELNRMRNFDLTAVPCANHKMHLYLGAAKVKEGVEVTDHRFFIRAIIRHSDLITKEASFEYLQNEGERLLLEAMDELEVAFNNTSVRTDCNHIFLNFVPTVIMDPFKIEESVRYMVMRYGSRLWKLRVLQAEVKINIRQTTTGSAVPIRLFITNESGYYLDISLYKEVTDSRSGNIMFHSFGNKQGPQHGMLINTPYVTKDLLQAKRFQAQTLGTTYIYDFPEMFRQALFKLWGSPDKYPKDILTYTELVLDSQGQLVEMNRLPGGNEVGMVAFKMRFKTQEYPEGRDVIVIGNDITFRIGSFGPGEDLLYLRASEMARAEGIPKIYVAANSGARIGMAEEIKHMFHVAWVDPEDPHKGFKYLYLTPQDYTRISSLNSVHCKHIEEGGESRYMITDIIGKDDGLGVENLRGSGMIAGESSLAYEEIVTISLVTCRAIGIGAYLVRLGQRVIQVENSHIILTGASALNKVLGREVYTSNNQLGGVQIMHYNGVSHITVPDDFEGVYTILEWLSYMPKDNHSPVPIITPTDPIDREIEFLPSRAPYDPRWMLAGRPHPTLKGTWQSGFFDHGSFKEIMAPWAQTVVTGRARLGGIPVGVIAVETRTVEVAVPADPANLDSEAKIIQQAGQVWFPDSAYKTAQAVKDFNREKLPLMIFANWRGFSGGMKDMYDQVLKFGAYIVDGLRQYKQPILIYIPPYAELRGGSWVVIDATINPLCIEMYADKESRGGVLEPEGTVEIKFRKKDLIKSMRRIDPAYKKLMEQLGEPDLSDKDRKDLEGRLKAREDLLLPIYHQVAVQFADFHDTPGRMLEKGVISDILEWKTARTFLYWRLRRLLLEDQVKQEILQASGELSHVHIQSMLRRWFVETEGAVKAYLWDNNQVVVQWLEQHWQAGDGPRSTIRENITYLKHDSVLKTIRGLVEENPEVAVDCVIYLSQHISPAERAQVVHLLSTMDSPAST

For the compound `COc1ccc(F)cc1[C@H](Cn1c(=O)n(C(C)(C)C(=O)N2CC=CC2)c(=O)c2c(C)c(-n3nccn3)sc21)OCC(C)O` (stereo partly shown) [Compound I-121], the IC50 fell in the range of 1 to 5 nM at human (hACC2) (Table 2a); 1 to 5 nM against human (hACC2) (Table 2b, additional results); 1 to 5 nM on fungal (fACC2) (Table 2a); 1 to 5 nM at fungal (fACC2) (Table 2b, additional results). Further, the MIC was 1.1 to 2 µg/mL (≈ 1.8 to 3.26 µM) in the assay with C. parapsilosis (Table 3a); 2.01 to 4 µg/mL (≈ 3.28 to 6.53 µM) in the assay on C. parapsilosis (Table 3b (additional results)); 1.1 to 2 µg/mL (≈ 1.8 to 3.26 µM) with C. albicans (Table 3a); 1.01 to 2 µg/mL (≈ 1.65 to 3.26 µM) in the assay with C. albicans (Table 3b (additional results)); 0.25 to 1 µg/mL (≈ 0.408 to 1.63 µM) with C. krusei (Table 3a); more than 4.01 µg/mL in the assay on C. krusei (Table 3b (additional results)).
As for `COCCOc1ccc(F)cc1[C@H](Cn1c(=O)n(C(C)(C)C(=O)NC(C)C)c(=O)c2c(C)c(-n3nccn3)sc21)OCCOC` [Compound I-122], the IC50 was in the range of 10 to 40 nM against human (hACC2) (Table 2a); 10 to 40 nM against human (hACC2) (Table 2b, additional results); 1 to 5 nM on fungal (fACC2) (Table 2a); 1 to 5 nM on fungal (fACC2) (Table 2b, additional results). Besides, the MIC was in the range of 1.1 to 2 µg/mL (≈ 1.7 to 3.09 µM) with C. parapsilosis (Table 3a); 1.01 to 2 µg/mL (≈ 1.56 to 3.09 µM) in the assay with C. parapsilosis (Table 3b (additional results)); 2.1 to 4 µg/mL (≈ 3.25 to 6.18 µM) with C. albicans (Table 3a); 2.01 to 4 µg/mL (≈ 3.11 to 6.18 µM) in the assay with C. albicans (Table 3b (additional results)); 0.25 to 1 µg/mL (≈ 0.387 to 1.55 µM) in the assay with C. krusei (Table 3a); 1.01 to 2 µg/mL (≈ 1.56 to 3.09 µM) in the assay on C. krusei (Table 3b (additional results)).
Regarding `COc1ccc(F)cc1[C@H](Cn1c(=O)n(C(C)(C)C(N)=O)c(=O)c2c(C)c(-n3nccn3)sc21)OCCC(=O)C(F)(F)F` [Compound I-123], the IC50 against human (hACC2) (Table 2a) was in the range of 10 to 40 nM; against human (hACC2) (Table 2b, additional results), 10 to 40 nM; on fungal (fACC2) (Table 2a), 1 to 5 nM; at fungal (fACC2) (Table 2b, additional results) it was 1 to 5 nM. The MIC was 2.1 to 4 µg/mL (≈ 3.35 to 6.38 µM) in the assay on C. parapsilosis (Table 3a); more than 4.01 µg/mL with C. parapsilosis (Table 3b (additional results)); 2.1 to 4 µg/mL (≈ 3.35 to 6.38 µM) in the assay with C. albicans (Table 3a); more than 4.01 µg/mL in the assay on C. albicans (Table 3b (additional results)); 1.1 to 2 µg/mL (≈ 1.76 to 3.19 µM) in the assay on C. krusei (Table 3a); more than 4.01 µg/mL in the assay on C. krusei (Table 3b (additional results)).
In the case of `CCc1ccc(F)cc1[C@H](Cn1c(=O)n(C(C)(C)C(=O)O)c(=O)c2c(C)c(-n3nccn3)sc21)OCCO` [Compound I-125], the IC50 at human (hACC2) (Table 2a) was 1 to 5 nM; against human (hACC2) (Table 2b, additional results), 1 to 5 nM; at fungal (fACC2) (Table 2a), 1 to 5 nM; on fungal (fACC2) (Table 2b, additional results), 0.3 to 1 nM. Moreover, the MIC is 2.1 to 4 µg/mL (≈ 3.85 to 7.33 µM) in the assay with C. parapsilosis (Table 3a); more than 4.01 µg/mL with C. parapsilosis (Table 3b (additional results)); 2.1 to 4 µg/mL (≈ 3.85 to 7.33 µM) with C. albicans (Table 3a); more than 4.01 µg/mL in the assay with C. albicans (Table 3b (additional results)); 2.1 to 4 µg/mL (≈ 3.85 to 7.33 µM) in the assay with C. krusei (Table 3a); more than 4.01 µg/mL with C. krusei (Table 3b (additional results)).
Consider `COCCO[C@@H](Cn1c(=O)n(C(C)(C)C(=O)OC(C)C)c(=O)c2c(C)c(-n3nccn3)sc21)c1cc(F)ccc1OC` [Compound I-127], for which the IC50 at human (hACC2) (Table 2a) was 10 to 40 nM; against human (hACC2) (Table 2b, additional results), 10 to 40 nM; on fungal (fACC2) (Table 2a) it was 1 to 5 nM; at fungal (fACC2) (Table 2b, additional results), 1 to 5 nM. For the same compound, the MIC in the assay on C. parapsilosis (Table 3a) was 1.1 to 2 µg/mL (≈ 1.82 to 3.31 µM); in the assay on C. parapsilosis (Table 3b (additional results)) it was more than 4.01 µg/mL; with C. albicans (Table 3a), 1.1 to 2 µg/mL (≈ 1.82 to 3.31 µM); in the assay with C. albicans (Table 3b (additional results)), 2.01 to 4 µg/mL (≈ 3.33 to 6.63 µM); in the assay with C. krusei (Table 3a), 0.25 to 1 µg/mL (≈ 0.414 to 1.66 µM); in the assay on C. krusei (Table 3b (additional results)), 2.01 to 4 µg/mL (≈ 3.33 to 6.63 µM).
For `COCCO[C@@H](Cn1c(=O)n(C(C)(C)C(=O)OC2CCC2)c(=O)c2c(C)c(-n3nccn3)sc21)c1cc(F)ccc1OC` [Compound I-128], the IC50 at human (hACC2) (Table 2a) is 10 to 40 nM; against human (hACC2) (Table 2b, additional results), 10 to 40 nM; at fungal (fACC2) (Table 2a) it was 1 to 5 nM; at fungal (fACC2) (Table 2b, additional results), 1 to 5 nM. Besides, the MIC was 2.1 to 4 µg/mL (≈ 3.41 to 6.5 µM) with C. parapsilosis (Table 3a); 2.01 to 4 µg/mL (≈ 3.26 to 6.5 µM) in the assay with C. parapsilosis (Table 3b (additional results)); 2.1 to 4 µg/mL (≈ 3.41 to 6.5 µM) with C. albicans (Table 3a); more than 4.01 µg/mL with C. albicans (Table 3b (additional results)); 1.1 to 2 µg/mL (≈ 1.79 to 3.25 µM) in the assay on C. krusei (Table 3a); 2.01 to 4 µg/mL (≈ 3.26 to 6.5 µM) in the assay with C. krusei (Table 3b (additional results)).
On to `COc1ccc(F)cc1[C@H](Cn1c(=O)n(C(C)(C)C(=O)OC(C)C)c(=O)c2c(C)c(-n3nccn3)sc21)OCCO` [Compound I-129], for which the IC50 was 1 to 5 nM at human (hACC2) (Table 2a); 1 to 5 nM against human (hACC2) (Table 2b, additional results); 1 to 5 nM at fungal (fACC2) (Table 2a); 1 to 5 nM at fungal (fACC2) (Table 2b, additional results). Also, the minimum inhibitory concentration (MIC) in the assay with C. parapsilosis (Table 3a) was 0.25 to 1 µg/mL (≈ 0.424 to 1.7 µM); in the assay with C. parapsilosis (Table 3b (additional results)), more than 4.01 µg/mL; with C. albicans (Table 3a), 1.1 to 2 µg/mL (≈ 1.87 to 3.39 µM); in the assay on C. albicans (Table 3b (additional results)), 1.01 to 2 µg/mL (≈ 1.71 to 3.39 µM); in the assay on C. krusei (Table 3a) it was 0.25 to 1 µg/mL (≈ 0.424 to 1.7 µM); in the assay on C. krusei (Table 3b (additional results)) it was 0.25 to 1 µg/mL (≈ 0.424 to 1.7 µM).
